Experimental findings from patent publication US20230092163A1, “COMPOUNDS AND COMPOSITIONS FOR TREATING CONDITIONS ASSOCIATED WITH STING ACTIVITY” (IFM Due, Inc., priority 2019, published 2023) are described below.

In one assay the target is STING (Homo sapiens, UniProt Q86WV6, G230A/H232R/R293Q/R71H). Nature of the assay: STING reporter assay: THP1-Dual KO-IFNAR2 cells stimulated with 2′3′cGAMP, luciferase reporter activity. Conditions: 15 μM 2′3′cGAMP, 24h, class symbols. The format is cell-based. On the procedure: STING pathway activation by the compounds described herein were measured using THP1-Dual™ cells (KO-IFNAR2).
STING, sequence (Q86WV6 whole entry R71H/G230A/H232R/R293Q): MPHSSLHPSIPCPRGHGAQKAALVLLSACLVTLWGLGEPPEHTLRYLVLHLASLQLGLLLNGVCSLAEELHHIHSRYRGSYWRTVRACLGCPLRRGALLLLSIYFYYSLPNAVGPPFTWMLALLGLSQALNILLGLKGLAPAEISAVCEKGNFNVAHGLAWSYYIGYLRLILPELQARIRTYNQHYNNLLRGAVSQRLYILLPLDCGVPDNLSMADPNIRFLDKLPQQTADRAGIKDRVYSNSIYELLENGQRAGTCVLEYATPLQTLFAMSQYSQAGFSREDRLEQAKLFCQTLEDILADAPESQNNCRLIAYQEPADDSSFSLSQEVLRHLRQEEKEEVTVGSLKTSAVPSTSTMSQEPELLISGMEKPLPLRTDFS
THP1-Dual™ KO-IFNAR2 Cells (obtained from invivogen) were maintained in RPMI, 10% FCS, 5 ml P/S, 2 mM L-glut, 10 mM Hepes, and 1 mM sodium pyruvate. Compounds were spotted in empty 384 well tissue culture plates (Greiner 781182) by Echo for a final concentration of 0.0017-100 μM. Cells were plated into the TC plates at 40 μL per well, 2×10E6 cells/mL. For activation with STING ligand, 2′3′cGAMP (MW 718.38, obtained from Invivogen), was prepared in Optimem media.
The following solutions were prepared for each 1×384 plate: • Solution A: 2 mL Optimem with one of the following stimuli: • 60 uL of 10 mM 2′3′cGAMP ->150 μM stock • Solution B: 2 mL Optimem with 60 μL Lipofectamine 2000->Incubate 5 min at RT
2 mL of solution A and 2 ml Solution B was mixed and incubated for 20 min at room temperature (RT). 20 uL of transfection solution (A+B) was added on top of the plated cells, with a final 2′3′cGAMP concentration of 15 μM. The plates were then centrifuged immediately at 340 g for 1 minute, after which they were incubated at 37° C., 5% CO2, >98% humidity for 24h. Luciferase reporter activity was then measured. EC50 values were calculated by using standard methods known in the art.
Luciferase reporter assay: 10 μL of supernatant from the assay was transferred to white 384-plate with flat bottom and squared wells. One pouch of QUANTI-Luc™ Plus was dissolved in 25 mL of water. 100 μL of QLC Stabilizer per 25 mL of QUANTI-Luc™ Plus solution was added. 50 μL of QUANTI-Luc™ Plus/QLC solution per well is then added. Luminescence is measured on a Platereader (e.g., Spectramax I3X (Molecular Devices GF3637001)).
Luciferase reporter activity was then measured. EC50 values were calculated by using standard methods known in the art.
As to `N#Cc1cc2ccc(NC(=O)Nc3ccc(C(F)(F)F)cc3)cc2[nH]1` [Compound 255], the EC50 lay within 5 to 100 µM. In turn, `CC(=O)n1ccc2ccc(NC(=O)Nc3ccc(C(F)(F)F)cc3)cc21` [Compound 257] showed an EC50 of 1 to 5 µM. For the molecule `N#Cc1c[nH]c2cc(NC(=O)Nc3ccc(C(F)(F)F)cc3)ccc12` [Compound 258, 3-(3-cyano-1H-indol-6-yl)-1-[4-(trifluoromethyl)phenyl]urea], the EC50 is 0.2 to 1 µM. On the same count and under the same terms, for `CCCCC1CCC(NC(=O)Nc2ccc3cc(Cl)[nH]c3c2)CC1` (stereo not drawn) [Compound 260] the value was 5 to 100 µM; for `O=C(Nc1ccc(C(F)(F)F)cc1)Nc1cc2[nH]ccc2cc1F` [Compound 262], 5 to 100 µM. `O=C(Nc1ccc(C(F)(F)F)cc1)Nc1ccc2c3c([nH]c2c1)CCCC3` [Compound 263] registered an EC50 of 5 to 100 µM. In turn, `CN(C(=O)Nc1ccc(C(F)(F)F)cc1)c1ccc2cc[nH]c2c1` [Compound 264] yielded an EC50 of 5 to 100 µM. The same measure, in the same setting: for `Cc1cc2cc[nH]c2cc1NC(=O)Nc1ccc(C(F)(F)F)cc1` [Compound 265] the value was 5 to 100 µM; for `Cn1ccc2ccc(NC(=O)Nc3ccc(C(F)(F)F)cc3)cc21` [Compound 268], 5 to 100 µM. In turn, `O=C(Nc1ccc2cc[nH]c2c1)Nc1ccc(C(F)(F)F)cn1` [Compound 269] came in with an EC50 of 0.2 to 1 µM.

As to `CCCCc1cccc(NC(=O)Nc2ccc3cc[nH]c3c2)c1` [Compound 270], the EC50 is 0.04 to 0.2 µM. The same measure, in the same setting: for `CCCCC1CCC(NC(=O)Nc2ccc3cc[nH]c3c2)CC1` (stereo not drawn) [Compound 271] the value was 0.2 to 1 µM; for `O=C(Nc1cccc(C(F)(F)F)c1)Nc1ccc2cc[nH]c2c1` [Compound 272], 0.2 to 1 µM; for `CCCCc1ccc(NC(=O)Nc2ccc3cc[nH]c3c2)cc1` [Compound 273], 0.2 to 1 µM.

In the case of `CNC(=O)Nc1ccc2[nH]cc(NC(=O)Nc3ccc(C(F)(F)F)cc3)c2c1` [Compound 275], the EC50 lay in the range of 1 to 5 µM. `CC(C)c1ccc(-c2nnc(NC(=O)Nc3ccc4[nH]ccc4c3)s2)cc1` [Compound 279] had an EC50 of 5 to 100 µM.

As to `O=C(Nc1ccc(S(=O)(=O)C(F)(F)F)cc1)Nc1ccc2[nH]ccc2c1` [Compound 289], the EC50 is 5 to 100 µM. `O=C(Nc1ccc(S(F)(F)(F)(F)F)cc1)Nc1ccc2[nH]ccc2c1` [Compound 291] gave a 50% effective concentration (EC50) of 1 to 5 µM. As for `O=C(Nc1ccc2[nH]ccc2c1)Nc1cc(C2CCC2)no1` [Compound 302], the EC50 is 5 to 100 µM. Molecule `O=C(Nc1ccc2[nH]ccc2c1)Nc1cc2cccc(C(F)(F)F)n2n1` [Compound 309] came in with an EC50 of 5 to 100 µM.

In turn, `CCC(NC(=O)Nc1ccc2[nH]ccc2c1)c1cccc(C(F)(F)F)c1` (stereo not drawn) [Compound 313] gave an EC50 of 5 to 100 µM. The molecule `O=C(Nc1cccc(S(=O)(=O)C(F)(F)F)c1)Nc1ccc2[nH]ccc2c1` [Compound 315] returned an EC50 of 5 to 100 µM. With `O=C(NCc1cc(Cl)cc(C(F)(F)F)c1)Nc1ccc2[nH]ccc2c1` [Compound 318], the EC50 was in the range of 5 to 100 µM.

Still in this assay, the particulars now being: 15 μM 2′3′cGAMP, 24h, numeric bounds.
In turn, `O=C(Nc1ccc(C(F)(F)F)cc1)Nc1ccc2cc(-c3ccccc3)[nH]c2c1` [Compound 256] showed an EC50 above 100 µM. Still for that read-out and setting: the same measure for `Cc1c(NC(=O)Nc2ccc(C(F)(F)F)cc2)ccc2cc[nH]c12` [Compound 259]: above 30 µM; for `CCc1ccc(NC(=O)Nc2ccc3c(NC(=O)Nc4ccc(CC)cc4)c[nH]c3c2)cc1` [Compound 261]: above 100 µM. Molecule `CCCCC1CCC(NC(=O)Nc2ccc3cc(C)[nH]c3c2)CC1` (stereo not drawn) [Compound 266] yielded an EC50 above 100 µM. On the same count and under the same terms, for `CN(C(=O)Nc1ccc2cc[nH]c2c1)c1ccc(C(F)(F)F)cc1` [Compound 267] the value was above 67.1 µM. As for `O=C(NCC1(c2cccc(Cl)c2)CCOCC1)Nc1ccc2[nH]ccc2c1` [Compound 274], the EC50 is above 30 µM. As for `N#Cc1ccc(CNC(=O)Nc2ccc3[nH]ccc3c2)c(C(F)(F)F)c1` [Compound 276], the EC50 is above 30 µM. Consider `O=C(Nc1ccc(Oc2c(F)cccc2F)cc1)Nc1ccc2[nH]ccc2c1` [Compound 278], for which the EC50 was above 30 µM. Molecule `O=C(Nc1cccc(S(=O)(=O)N2CCCC2)c1)Nc1ccc2[nH]ccc2c1` [Compound 282] returned an EC50 above 30 µM. The molecule `O=C(Nc1ccc2[nH]ccc2c1)Nc1ccc2[nH]ccc2c1` [Compound 283] gave an EC50 above 30 µM.

In turn, `O=C(Nc1ccc(S(=O)(=O)N2CCCC2)cc1)Nc1ccc2[nH]ccc2c1` [Compound 284] came in with an EC50 above 30 µM. Regarding `O=C(Nc1cnc2cc(C(F)(F)F)ccc2c1)Nc1ccc2[nH]ccc2c1` [Compound 285], the EC50 was above 30 µM. On to `O=C(Nc1cnc2ccc(C(F)(F)F)cc2c1)Nc1ccc2[nH]ccc2c1` [Compound 286], for which the EC50 was above 30 µM.

In turn, `O=C(Nc1ccc2nc(C(F)(F)F)ccc2c1)Nc1ccc2[nH]ccc2c1` [Compound 287] displayed an EC50 above 30 µM. On to `CC(Cc1cccc(C(F)(F)F)c1)NC(=O)Nc1ccc2[nH]ccc2c1` (stereo not drawn) [Compound 288], for which the EC50 is above 30 µM. Take `O=C(NCCc1ncc(C(F)(F)F)cc1Cl)Nc1ccc2[nH]ccc2c1` [Compound 290]: the EC50 was above 30 µM. With `CN(C)S(=O)(=O)c1ccc(NC(=O)Nc2ccc3[nH]ccc3c2)cc1` [Compound 292], the EC50 was above 30 µM. Same read-out and setting: the same measure for `O=C(Nc1cc(F)c(N2CCC(F)(F)CC2)c(F)c1)Nc1ccc2[nH]ccc2c1` [Compound 293]: above 30 µM; for `O=C(NCCN1CCC(Cc2ccccc2)CC1)Nc1ccc2[nH]ccc2c1` [Compound 294]: above 30 µM. For `O=C(NCCOc1cccc(Br)c1)Nc1ccc2[nH]ccc2c1` [Compound 295], the EC50 was above 30 µM. The molecule `O=C(NCc1ccc(OCC(F)(F)F)nc1)Nc1ccc2[nH]ccc2c1` [Compound 296] returned an EC50 above 30 µM. In turn, `CCOc1ccc(-c2cc(NC(=O)Nc3ccc4[nH]ccc4c3)on2)cc1` [Compound 297] had an EC50 above 30 µM. In turn, `O=C(NCCCc1cncc(C(F)(F)F)c1)Nc1ccc2[nH]ccc2c1` [Compound 298] registered an EC50 above 30 µM. In turn, `O=C(Nc1ccc2[nH]ccc2c1)Nc1cc2ccc(C(F)(F)F)cn2n1` [Compound 299] registered an EC50 above 30 µM. Same read-out and setting: for `CCS(=O)(=O)c1ccc(CNC(=O)Nc2ccc3[nH]ccc3c2)cn1` [Compound 300] the value was above 30 µM; for `CCn1cc(CNC(=O)Nc2ccc3[nH]ccc3c2)cn1` [Compound 301], above 30 µM; for `O=C(Nc1cccc(C(F)F)c1)Nc1ccc2[nH]ccc2c1` [Compound 303], above 30 µM. Consider `O=C(NCCc1ccccc1Br)Nc1ccc2[nH]ccc2c1` [Compound 304], for which the EC50 is above 30 µM. The molecule `CC(C)(C)c1cc(NC(=O)Nc2ccc3[nH]ccc3c2)on1` [Compound 305] yielded an EC50 above 30 µM. Regarding `Cn1cc(NC(=O)Nc2ccc3[nH]ccc3c2)cn1` [Compound 306], the EC50 is above 30 µM. On to `N#Cc1cc(F)cc(NC(=O)Nc2ccc3[nH]ccc3c2)c1` [Compound 307], for which the EC50 was above 30 µM. On the same count and under the same terms, for `N#Cc1ccc(OC2CCC(NC(=O)Nc3ccc4[nH]ccc4c3)CC2)cc1` (stereo not drawn) [Compound 308] the value was above 30 µM; for `CC1(CNC(=O)Nc2ccc3[nH]ccc3c2)CCC(F)(F)CC1` [Compound 311], above 30 µM; for `CN(C)S(=O)(=O)c1cccc(NC(=O)Nc2ccc3[nH]ccc3c2)c1` [Compound 312], above 30 µM. Turning to `O=C(NCCc1c[nH]c2cc(OC(F)(F)F)ccc12)Nc1ccc2[nH]ccc2c1` [Compound 314], the EC50 was above 30 µM. The same measure, in the same setting: the same measure for `CC(C)(C)OC(=O)N1CC(CCNC(=O)Nc2ccc3[nH]ccc3c2)C1` [Compound 316]: above 30 µM; for `O=C(Nc1ccc2[nH]ccc2c1)NC1CCc2ccc(C(F)(F)F)cc21` (stereo not drawn) [Compound 317]: above 30 µM; for `O=C(NCc1ccc(C(F)(F)F)c(Cl)c1)Nc1ccc2[nH]ccc2c1` [Compound 319]: above 30 µM. Same read-out and setting: the same measure for `O=C(NCc1ccc(Cl)c(C(F)(F)F)c1)Nc1ccc2[nH]ccc2c1` [Compound 320]: above 30 µM; for `O=C(NCCc1ccc(OC(F)(F)F)cc1)Nc1ccc2[nH]ccc2c1` [Compound 321]: above 30 µM.

`Cc1cc(CNC(=O)Nc2ccc3[nH]ccc3c2)nn1C` [Compound 322] yielded an EC50 above 30 µM. With `O=C(NCCc1c(F)cccc1Cl)Nc1ccc2[nH]ccc2c1` [Compound 323], the EC50 was above 30 µM. `Cc1ccccc1CCNC(=O)Nc1ccc2[nH]ccc2c1` [Compound 324]: the EC50 was above 30 µM. Turning to `CC(CNC(=O)Nc1ccc2[nH]ccc2c1)c1ccccc1` (stereo not drawn) [Compound 325], the EC50 is above 30 µM. Regarding `O=C(Nc1ccc2[nH]ccc2c1)N[C@@H]1C[C@H]1c1ccccc1` [Compound 326], the EC50 is above 30 µM. On the same count and under the same terms, for `O=C(NCCc1ccccc1)Nc1ccc2[nH]ccc2c1` [Compound 327] the value was above 30 µM.

One may read the EC50 as the concentration giving half of the maximal effect. A high value points to a need for much substance.
